Tests used:
[1] = test system: rabbits (New Zealand White and Dutch-Belted); assay: IOP-lowering activity in rabbits; format: in vivo
Text: (§1) Some obvious drawbacks and reasons for the lack of consistent observations noted above are probably related to species differences in the effects of BK on IOP changes and on the fact that BK is a labile peptide that can easily and rapidly be inactivated by kininases and other proteases when it comes into contact with body fluids (Hall, Pharmacol. Ther., 56, 131-190, 1992). Additionally, topical ocular administration of peptides such as BK are confounded by the potential lack of or little bioavailability through the cornea to reach the anterior segment of the eye. […] This is probably related to the attainment of a relevant concentration in the aqueous humor and ciliary body when the compound was administered topical ocularly.
IOP is determined with an applanation pneumatonometer after light corneal anesthesia with 0.1% proparacaine. After baseline IOP measurements are taken, one eye of each of 7-10 (or both eyes of 5) rabbits per compound dose is topically dosed with compound. Either the contralateral eye is dosed with vehicle or a separate group of rabbits is used for vehicle control. Subsequent IOP measurements are taken at 0.5, 1, 2, 3, and 4 hours. In cases where the compound has poor ocular bioavailability, the compound may need to be administered intracamerally or intravitreally in order to observe the IOP-lowering efficacy.

[2] = biological target: T1, B2-receptors in h-TM cells (Homo sapiens, UniProt P30411); assay: [Ca2+]i mobilization (FLIPR) in h-TM cells, agonist mode; format: cell-based; conditions: h-TM cells, mean ± SEM
T1 construct: B2-receptor proteins in h-TM, h-CM and h-NPE cells; endogenous in cells; host or cells: human trabecular meshwork (h-TM), human ciliary muscle (h-CM) and human non-pigmented ciliary epithelial (h-NPE) cells
T1 sequence (P30411 1-391): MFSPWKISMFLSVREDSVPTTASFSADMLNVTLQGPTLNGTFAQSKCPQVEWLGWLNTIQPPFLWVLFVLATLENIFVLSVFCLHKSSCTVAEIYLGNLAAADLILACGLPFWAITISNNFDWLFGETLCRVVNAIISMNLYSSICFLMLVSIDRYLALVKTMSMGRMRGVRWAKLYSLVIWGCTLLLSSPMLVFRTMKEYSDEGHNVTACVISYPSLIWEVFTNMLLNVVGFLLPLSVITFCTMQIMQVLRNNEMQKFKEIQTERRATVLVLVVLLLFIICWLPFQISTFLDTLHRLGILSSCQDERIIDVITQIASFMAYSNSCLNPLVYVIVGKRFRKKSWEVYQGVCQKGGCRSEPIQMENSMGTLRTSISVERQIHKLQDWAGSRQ
Protocol: (§2) On the day of the experiment, one vial of FLIPR Calcium Assay Kit dye is re-suspended in 50 mL of a FLIPR buffer consisting of Hank's Balanced Salt Solution (HBSS), 20 mM HEPES, and 2.5 mM probenecid, pH 7.4. Cells are loaded with the calcium-sensitive dye by addition of an equal volume (50 μL) to each well of the 96-well plate and incubated with dye for 1 h at 23° C. After this time, the test compound plate and cell plate are placed in the FLIPR instrument. At the beginning of an experimental run, a signal test is performed to check the basal fluorescence signal from the dye-loaded cells and the uniformity of the signal across the plate. The basal fluorescence is adjusted between 8000-12000 counts by modifying the exposure time, the camera F-stop, or the laser power. Instrument settings for a typical assay are the following: laser power 0.3-0.6 W, camera F-stop F/2, and exposure time 0.4 sec.
(§3) Fluorescence data are collected in real-time at 1.0 sec intervals for the first 60 secs and at 6.0 sec intervals for an additional 120 secs. […] The data are then analyzed using an automated, iterative, sigmoidal curve-fitting computer program to obtain the potency and intrinsic activities of the test agents as previously described (Sharif et al. J. Pharmacol. Exp. Ther. 286: 1094-1102, 1998; Sharif et al. Invest. Ophthalmol. Vis. Sci. 39:2562-2571, 1998; Kelly et al. J. Pharmacol. Exp. Ther. 304: 238-245, 2003). The sources of materials and reagents for such assays can be found in the references cited above.

cats = assay: IOP-lowering activity in cats; format: in vivo
Text: as §1

[3] = biological target: T2, B2-receptors in h-CM cells (Homo sapiens, UniProt P30411); assay: [Ca2+]i mobilization (FLIPR) in h-CM cells, agonist mode; format: cell-based; conditions: h-CM cells, mean ± SEM
T2 construct: B2-receptor proteins in h-TM, h-CM and h-NPE cells; endogenous in cells; host or cells: human trabecular meshwork (h-TM), human ciliary muscle (h-CM) and human non-pigmented ciliary epithelial (h-NPE) cells
T2 sequence (P30411 1-391): T1 sequence (P30411 1-391)
Protocol: as §2, §3

[4] = read-out: Potency (EC50), [Ca2+]i mobilization

Emax ([2]; HTM, read-out: Intrinsic Activity (Emax, % max relative to BK)): 86% | EC50 [2, 4]: 167 ± 29 nM | Emax ([3]; read-out: Intrinsic Activity (Emax, % max relative to BK)): 63% | EC50 [3, 4]: 174 ± 21 nM
Structure (SMILES): CNC(=O)c1ccc(/C=C/C(=O)NCC(=O)N(C)c2ccc(Cl)c(COc3cccc4c(OCc5ccccn5)cc(C)nc34)c2Cl)cc1 [FR-190997]
ability to lower IOP [1]: unable to lower IOP | ability to lower IOP (cats): unable to lower IOP

— US8173668B1 (Alcon Research, Ltd., priority 2007, dated 2012)
